Molecular target: T1, human TSHR (Homo sapiens, UniProt P16473)
T1 construct: expressed in transfected cells
Experiment: Antagonist activity using TSH-induced cAMP production in human TSHR-stably expressing CHO cells
Format: cell-based
Settings: human TSH final concentration of 50 ng/mL, cAMP production rate
Experimental: Measurement of antagonist activity using TSH-induced cAMP production in human TSHR-stably expressing CHO cells as an indicator
The gene sequence (reference number NM_000369.2) of human TSHR was inserted into the multiple cloning site of pcDNA3.1(+). The prepared plasmid vector was introduced into CHO cells using a lipofection method to establish human TSHR-stably expressing CHO cells. The obtained cells were seeded at 5 x 10^4 cells/well in a 96-well poly-D-lysine-coated plate, and cultured in an F12 culture medium containing 10% FBS, 400 µg/mL of G418, 50 U/mL of penicillin and 50 µg/mL of streptomycin under conditions of 37°C and 5% CO2 for 1 day. The culture medium was removed, and the cells were then washed twice with 100 µL of an assay buffer (Hanks' Balanced Salt Solution containing 20 mM HEPES and 1 mM IBMX) per well. 30 µL of an assay buffer containing a test compound was added to the well, and incubation was performed at room temperature for 15 minutes. Then, 30 µL of an assay buffer containing human TSH (a final concentration of 50 ng/mL, R&D Systems, Inc.) was added, and incubation was performed at 37°C for 1 hour. The supernatant was removed, a Lysis and Detection Buffer 2 (Cisbio) was added, and incubation was performed at room temperature for 1 hour to prepare a cell lysate. According to the instruction manual of a cAMP Gs HiRange kit (Cisbio), the cell lysate, d2-labeled cAMP and anti-cAMP Europium Cryptate labeled antibodies (Cisbio) were reacted in a 384-well white microplate. Then, a fluorescence intensity ratio (measurement wavelength 665 nm/620 nm) was measured using a multi-plate reader (PHERAstar FSX, BMG LABTECH Japan). The fluorescence intensity ratio of each sample was converted to a cAMP content using a standard curve. The cAMP content was converted as a percentage of the control value to calculate a cAMP production rate. The cAMP production rate was plotted against the test compound concentration using Prism (Graph Pad Software Inc.) to calculate the IC50 value. In the tables, IC50<3.0 µM was indicated as A, and 3.0 µM≤IC50<30 µM was indicated as B. If activity was observed but the IC50 value could not be calculated, it was indicated as C.

T1 sequence (P16473 21-764): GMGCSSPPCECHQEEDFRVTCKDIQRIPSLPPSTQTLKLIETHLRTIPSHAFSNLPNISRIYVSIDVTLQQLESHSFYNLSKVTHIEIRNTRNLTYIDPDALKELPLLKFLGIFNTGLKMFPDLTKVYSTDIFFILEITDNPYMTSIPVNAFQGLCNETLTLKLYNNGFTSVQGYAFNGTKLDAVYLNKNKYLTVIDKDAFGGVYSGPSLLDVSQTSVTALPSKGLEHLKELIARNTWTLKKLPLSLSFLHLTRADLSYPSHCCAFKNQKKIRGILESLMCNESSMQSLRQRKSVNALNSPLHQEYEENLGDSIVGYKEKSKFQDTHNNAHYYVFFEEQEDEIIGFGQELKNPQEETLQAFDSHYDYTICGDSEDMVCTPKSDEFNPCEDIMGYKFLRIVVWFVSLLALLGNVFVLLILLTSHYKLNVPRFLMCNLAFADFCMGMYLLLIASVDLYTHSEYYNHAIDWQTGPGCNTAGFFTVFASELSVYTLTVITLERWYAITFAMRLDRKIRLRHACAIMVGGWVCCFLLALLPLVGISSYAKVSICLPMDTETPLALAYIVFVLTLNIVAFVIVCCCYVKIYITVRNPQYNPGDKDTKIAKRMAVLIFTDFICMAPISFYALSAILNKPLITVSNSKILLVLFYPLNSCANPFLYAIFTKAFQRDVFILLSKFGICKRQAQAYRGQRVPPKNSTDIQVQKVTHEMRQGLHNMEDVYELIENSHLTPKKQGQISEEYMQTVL

| IC50 [µM] | SMILES |
| --- | --- |
| < 3 | Cc1ccc2c(c1Oc1cc(F)ccc1Cl)N(C)C(=O)[C@H](NC(N)=O)[C@H]2O (relative stereo) [Example 21, 1-((3R^*,4S^*)-8-(2-chloro-5-fluorophenoxy)-4-hydroxy-1,7-dimethyl-2-oxo-1,2,3,4-tetrahydroquinoline-3-yl)urea] |
| 3 to 30 | CN1C(=O)C(C(N)=O)Cc2cc(NC(=O)OC3CCCC3)cc(Oc3ccccc3)c21 (centres unmarked) [Example 1, cyclopentyl (3-carbamoyl-1-methyl-2-oxo-8-phenoxy-1,2,3,4-tetrahydroquinoline-6-yl)carbamate] |
| < 3 | CN1C(=O)C(CC(N)=O)Cc2cc(NC(=O)OC3CCCC3)cc(Oc3ccccc3)c21 (centres unmarked) [Example 2, cyclopentyl (3-(2-amino-2-oxoethyl)-1-methyl-2-oxo-8-phenoxy-1,2,3,4-tetrahydroquinoline-6-yl)carbam ate] |
| < 3 | CN1C(=O)C(CC(N)=O)Cc2cc(NC(=O)OC3CCCC3)cc(Oc3ccccc3C#N)c21 (centres unmarked) [Example 3, cyclopentyl (3-(2-amino-2-oxoethyl)-8-(2-cyanophenoxy)-1-methyl-2-oxo-1,2,3,4-tetrahydroquinoline-6-yl)carbamate] |
| < 3 | CN1C(=O)C(NC(N)=O)Cc2cc(NC(=O)OC3CCCC3)cc(Oc3ccccc3C#N)c21 (centres unmarked) [Example 4, cyclopentyl (8-(2-cyanophenoxy)-1-methyl-2-oxo-3-ureido-1,2,3,4-tetrahydroquinoline-6-yl)carbamate] |
| < 3 | CN1C(=O)C(NC(N)=O)Cc2cc(NC(=O)OC3CCCC3)cc(Oc3cccc(C(F)(F)F)n3)c21 (centres unmarked) [Example 5, cyclopentyl (1-methyl-2-oxo-8-((6-trifluoromethylpyridin-2-yl)oxy)-3-ureido-1,2,3,4-tetrahydroquinoline-6-yl)carbamate] |
| < 3 | C[C@H](OC(=O)Nc1cc2c(c(Oc3cccc(C(F)(F)F)n3)c1)N(C)C(=O)C(NC(N)=O)C2)C(F)(F)F (stereo partly drawn) [Example 6, (S)-1,1,1-trifluoropropan-2-yl (1-methyl-2-oxo-8-((6-trifluoromethylpyridin-2-yl)oxy)-3-ureido-1,2,3,4-tetrahydroquinoline-6-yl)carbamate] |
| < 3 | CN1C(=O)C(NC(N)=O)Cc2cc(NC(=O)OCC3CC3)cc(Oc3cccc(C(F)(F)F)n3)c21 (centres unmarked) [Example 7, cyclopropylmethyl (1-methyl-2-oxo-8-((6-(trifluoromethyl)pyridin-2-yl)oxy)-3-ureido-1,2,3,4-tetrahydroquinoline-6-yl)carbamate] |
| < 3 | CN1C(=O)C(NC(N)=O)Cc2cc(NC(=O)OC3(C)CC3)cc(Oc3cccc(C(F)(F)F)n3)c21 (centres unmarked) [Example 8, 1-methylcyclopropyl (1-methyl-2-oxo-8-((6-(trifluoromethyl)pyridin-2-yl)oxy)-3-ureido-1,2,3,4-tetrahydroquinoline-6-yl)carbamate] |
| < 3 | CC(C)OC(=O)Nc1cc2c(c(Oc3cccc(C(F)(F)F)n3)c1)N(C)C(=O)C(NC(N)=O)C2 (centres unmarked) [Example 9, isopropyl (1-methyl-2-oxo-8-((6-trifluoromethylpyridin-2-yl)oxy)-3-ureido-1,2,3,4-tetrahydroquinoline-6-yl)carbamate] |
| 3 to 30 | CN1C(=O)C(CNC(N)=O)Cc2cccc(Oc3ccccc3)c21 (centres unmarked) [Example 10, 1-((1-methyl-2-oxo-8-phenoxy-1,2,3,4-tetrahydroquinoline-3-yl)methyl)urea] |
| < 3 | CN1C(=O)[C@H](NC(N)=O)Cc2cccc(C(=O)c3ccccc3Cl)c21 [Example 11, (R)-1-(8-(2-chlorobenzoyl)-1-methyl-2-oxo-1,2,3,4-tetrahydroquinoline-3-yl)urea] |
| > 30 | CN1C(=O)[C@H](NC(N)=O)Cc2cccc(C(O)c3ccccc3Cl)c21 (stereo partly drawn) [Example 12, 1-((3R)-8-((2-chlorophenyl)(hydroxy)methyl)-1-methyl-2-oxo-1,2,3,4-tetrahydroquinoline-3-yl)urea] |
| < 3 | C=C(c1ccccc1Cl)c1cccc2c1N(C)C(=O)[C@H](NC(N)=O)C2 [Example 13, (R)-1-(8-(1-(2-chlorophenyl)vinyl)-1-methyl-2-oxo-1,2,3,4-tetrahydroquinoline-3-yl)urea] |
| 3 to 30 | CN1C(=O)C(NC(N)=O)Cc2cccc(C(C)(C)c3ccccc3)c21 (centres unmarked) [Example 14, 1-(1-methyl-2-oxo-8-(2-phenylpropan-2-yl)-1,2,3,4-tetrahydroquinoline-3-yl)urea] |
| < 3 | CC1(c2ccccc2)CC(C)(C)N2C(=O)[C@H](NC(N)=O)Cc3cccc1c32 (stereo partly drawn) [Example 15, 1-((2R)-5,5,7-trimethyl-3-oxo-7-phenyl-2,3,6,7-tetrahydro-1H,5H-pyrido[3,2,1-ij]quinolin-2-yl)urea] |

| IC50 [µM] | SMILES |
| --- | --- |
| 3 to 30 | CC1(c2ccccc2)CCN2C(=O)[C@H](NC(N)=O)Cc3cccc1c32 (stereo partly drawn) [Example 16, 1-((2R)-7-methyl-3-oxo-7-phenyl-2,3,6,7-tetrahydro-1H,5H-pyrido[3,2,1-ij]quinoline-2-yl)ur ea] |
| < 3 | CC1(c2ccccc2)C(=O)C(C)(C)N2C(=O)[C@H](NC(N)=O)Cc3cccc1c32 (stereo partly drawn) [Example 17, 1-((2R)-5,5,7-trimethyl-3,6-dioxo-7-phenyl-2,3,6,7-tetrahydro-1H,5H-pyrido[3,2,1-ij]quinoline-2-yl)urea] |
| > 30 | CN1C(=O)[C@H](NC(N)=O)Cc2cccc(OCc3ccccc3)c21 [Example 18, (R)-1-(8-(benzyloxy)-1-methyl-2-oxo-1,2,3,4-tetrahydroquinoline-3-yl)urea] |
| < 3 | Cc1ccc2c(c1Oc1cc(F)ccc1Cl)N(C)C(=O)[C@H](NC(=O)N1CCOCC1)C2 [Example 19, (R)-N-(8-(2-chloro-5-fluorophenoxy)-1,7-dimethyl-2-oxo-1,2,3,4-tetrahydroquinoline-3-yl)m orpholine-4-carboxamide] |
| < 3 | Cc1ccc2c(c1Oc1cc(F)ccc1Cl)N(C)C(=O)[C@H](NC(=O)c1ccccc1)C2 [Example 20, (R)-N-(8-(2-chloro-5-fluorophenoxy)-1,7-dimethyl-2-oxo-1,2,3,4-tetrahydroquinoline-3-yl)b enzamide] |
| < 3 | COC(=O)N[C@@H]1Cc2cccc(Oc3cc(F)ccc3Cl)c2N(C)C1=O [Example 22, methyl (R)-(8-(2-chloro-5-fluorophenoxy)-1-methyl-2-oxo-1,2,3,4-tetrahydroquinoline-3-yl)carbamate] |
| 3 to 30 | CN1C(=O)[C@H](N2CCNC2=O)Cc2cccc(Oc3cc(F)ccc3Cl)c21 [Example 24, (R)-8-(2-chloro-5-fluorophenoxy)-1-methyl-3-(2-oxoimidazolidine-1-yl)-3,4-dihydroquinoline-2(1H)-one] |
| > 30 | CN1C(=O)[C@H](N2CCOC2=O)Cc2cccc(Oc3cc(F)ccc3Cl)c21 [Example 25, (R)-3-(8-(2-chloro-5-fluorophenoxy)-1-methyl-2-oxo-1,2,3,4-tetrahydroquinoline-3-yl)oxazo lidine-2-one] |
| < 3 | CN1C(=O)C(OC(N)=O)Cc2cccc(Oc3cc(F)ccc3Cl)c21 (centres unmarked) [Example 26, 8-(2-chloro-5-fluorophenoxy)-1-methyl-2-oxo-1,2,3,4-tetrahydroquinoline-3-yl carbamate] |
| < 3 | CN1C(=S)C(NC(N)=O)Cc2cccc(Oc3cc(F)ccc3Cl)c21 (centres unmarked) [Example 27, 1-(8-(2-chloro-5-fluorophenoxy)-1-methyl-2-thioxo-1,2,3,4-tetrahydroquinoline-3-yl)urea] |
| 3 to 30 | NC(=O)NC1Cc2cccc(Oc3cc(F)ccc3Cl)c2-n2ccnc21 (centres unmarked) [Example 28, 1-(9-(2-chloro-5-fluorophenoxy)-4,5-dihydroimidazo[1,2-a]quinoline-4-yl)urea] |
| 3 to 30 | Cc1cnc2n1-c1c(cccc1Oc1cc(F)ccc1Cl)CC2NC(N)=O (centres unmarked) [Example 29, 1-(9-(2-chloro-5-fluorophenoxy)-1-methyl-4,5-dihydroimidazo[1,2-a]quinolin-4-yl)urea] |
| > 30 | CC(c1ccccc1)c1cccc2c1N(C)C(=O)N(CC(N)=O)C2 (centres unmarked) [Example 30, 2-(1-methyl-2-oxo-8-(1-phenylethyl)-1,4-dihydroquinazoline-3(2H)-yl)acetamide] |
| > 30 | Cc1ccc2cc(NC(N)=O)c(=O)n(C)c2c1Oc1cc(F)ccc1Cl [Example 31, 1-(8-(2-chloro-5-fluorophenoxy)-1,7-dimethyl-2-oxo-1,2-dihydroquinoline-3-yl)urea] |
| 3 to 30 | Cc1ccc2c(c1Oc1cc(F)ccc1Cl)N(C)C(=O)C1(NC(N)=O)CC21 (centres unmarked) [Example 32, 1-(4-(2-chloro-5-fluorophenoxy)-3,5-dimethyl-2-oxo-1,2,3,7b-tetrahydro-1aH-cyclopropa[c]quinoline-1a-yl)urea] |

| SMILES | IC50 [µM] |
| --- | --- |
| CN1C(=O)[C@H](NS(N)(=O)=O)Cc2cccc(Oc3cc(F)ccc3Cl)c21 [Example 23] | < 3 |
